Data published in publication PMC4753328, “Muscle-Type Nicotinic Receptor Blockade by Diethylamine, the Hydrophilic Moiety of Lidocaine” (Frontiers in Molecular Neuroscience, 2016).

What was measured:
[1] = biological target: T1, muscle-type nicotinic acetylcholine receptor (nAChR) (Torpedo marmorata, UniProt P02711+Q6S3H8+Q6S3H9+Q6S3I0); test: two-electrode voltage clamp, inhibition of currents evoked by […] ACh at −[…] mV; format: cell-based
T1 construct: gene CHRNA1; native nAChR purified from electroplax, reconstituted in asolectin lipids and microtransplanted to Xenopus oocytes; with β, γ and δ subunits of the heteropentamer
T1 sequence (P02711 25-461): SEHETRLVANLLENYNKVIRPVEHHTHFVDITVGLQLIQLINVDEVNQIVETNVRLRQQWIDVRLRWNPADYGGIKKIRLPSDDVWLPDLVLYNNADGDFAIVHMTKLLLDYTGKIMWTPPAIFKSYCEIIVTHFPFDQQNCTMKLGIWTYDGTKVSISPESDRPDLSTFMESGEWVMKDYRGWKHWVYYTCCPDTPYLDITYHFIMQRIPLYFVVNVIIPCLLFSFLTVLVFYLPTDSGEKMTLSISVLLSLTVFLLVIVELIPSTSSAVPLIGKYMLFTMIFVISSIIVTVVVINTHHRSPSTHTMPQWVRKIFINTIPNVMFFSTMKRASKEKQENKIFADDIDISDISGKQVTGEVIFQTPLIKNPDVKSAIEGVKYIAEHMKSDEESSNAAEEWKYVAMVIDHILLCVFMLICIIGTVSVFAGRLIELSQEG
T1 sequence (Q6S3I0 25-493): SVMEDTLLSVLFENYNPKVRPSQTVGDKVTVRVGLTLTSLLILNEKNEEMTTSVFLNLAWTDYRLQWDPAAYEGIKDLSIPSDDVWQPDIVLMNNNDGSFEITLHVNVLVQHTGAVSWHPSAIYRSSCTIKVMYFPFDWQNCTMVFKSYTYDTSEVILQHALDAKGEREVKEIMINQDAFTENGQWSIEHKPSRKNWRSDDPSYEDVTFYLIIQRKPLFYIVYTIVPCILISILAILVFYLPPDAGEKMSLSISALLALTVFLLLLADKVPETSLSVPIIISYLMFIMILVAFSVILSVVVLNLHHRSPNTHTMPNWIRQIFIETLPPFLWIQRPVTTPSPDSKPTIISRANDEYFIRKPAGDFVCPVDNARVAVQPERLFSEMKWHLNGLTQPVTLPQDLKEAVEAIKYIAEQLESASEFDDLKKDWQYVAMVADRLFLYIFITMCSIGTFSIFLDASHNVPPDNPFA
T1 sequence (Q6S3H9 18-505): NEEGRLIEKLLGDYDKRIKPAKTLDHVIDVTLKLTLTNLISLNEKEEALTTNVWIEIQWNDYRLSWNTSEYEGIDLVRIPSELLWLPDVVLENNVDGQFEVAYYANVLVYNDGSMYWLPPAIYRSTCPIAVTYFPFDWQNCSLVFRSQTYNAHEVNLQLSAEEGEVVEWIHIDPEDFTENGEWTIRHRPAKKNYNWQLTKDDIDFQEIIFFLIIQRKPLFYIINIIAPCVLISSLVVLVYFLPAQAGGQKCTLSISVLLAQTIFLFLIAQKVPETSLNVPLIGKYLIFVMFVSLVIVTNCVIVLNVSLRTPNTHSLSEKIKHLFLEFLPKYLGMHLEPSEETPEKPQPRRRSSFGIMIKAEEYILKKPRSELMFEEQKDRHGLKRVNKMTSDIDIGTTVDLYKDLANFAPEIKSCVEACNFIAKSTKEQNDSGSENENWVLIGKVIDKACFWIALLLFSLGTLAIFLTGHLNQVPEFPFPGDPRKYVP
T1 sequence (Q6S3H8 22-522): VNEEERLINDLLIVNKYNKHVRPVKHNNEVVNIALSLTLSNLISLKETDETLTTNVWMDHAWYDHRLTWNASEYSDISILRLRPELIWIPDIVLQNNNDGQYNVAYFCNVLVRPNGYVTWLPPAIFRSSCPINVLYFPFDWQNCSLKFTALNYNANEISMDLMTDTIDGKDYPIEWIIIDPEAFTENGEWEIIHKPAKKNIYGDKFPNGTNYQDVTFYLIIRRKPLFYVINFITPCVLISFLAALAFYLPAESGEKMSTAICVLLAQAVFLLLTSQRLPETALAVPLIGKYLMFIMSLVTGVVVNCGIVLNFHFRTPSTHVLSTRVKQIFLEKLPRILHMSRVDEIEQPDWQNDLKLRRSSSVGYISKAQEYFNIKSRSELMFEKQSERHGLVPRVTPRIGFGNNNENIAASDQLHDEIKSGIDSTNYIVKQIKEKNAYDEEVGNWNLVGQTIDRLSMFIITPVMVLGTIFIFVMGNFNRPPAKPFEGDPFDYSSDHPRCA

[2] = biological target: T1, muscle-type nicotinic acetylcholine receptor (nAChR); test: two-electrode voltage clamp, ACh concentration-current curve (agonist); format: cell-based

Structure (SMILES)	IC50 [1]	EC50 [2]
CCNCC [DEA, diethylamine]	68 µM	
CC(=O)OCC[N+](C)(C)C [ACh, acetylcholine]		46 µM
